For one data set, the system named is p. falciparum W2. Kind of data set: Parasite growth by 3H-hypoxanthine uptake in infected erythrocytes. The data set is classed as cell-based. As to conditions: Plasmodium falciparum, W2, Erythrocyte, read-out: inhibitory concentrations (IC50), strain W2.
A further data set relates to p. falciparum D6. The data set is described as above. The data set is classed as cell-based. As to conditions: Plasmodium falciparum, D6, Erythrocyte, read-out: inhibitory concentrations (IC50), strain D6.
Data set [1] deals with U937 cells. Kind of data set: Bivariate flow cytometry, dUTP terminal transferase labelling of DNA strand breaks. The data set is classed as cell-based, human. Here is the method:
In a more sophisticated use of flow cytometry, DNA strand breaks were detected in nuclei by means of terminal transferase and homopolymer tailing as described by Gorczyca W. et al., Cancer Res 53:1945-1951 (1993). Samples of 1×10^6 cells were fixed in 1% buffered formaldehyde at 0° C. for 5 minutes, washed with PBS, resuspended in 70% ethanol and stored at […] for 48 hours. Cells were rehydrated in PBS, then suspended in 100 μl of cacodylate buffer and 2.5 mM CoCI2 to prepare them for the terminal transferase reaction. Biotin-labelled 16-dUTP and terminal transferase (Boehringer Mannheim, GmbH) were added to provide the final concentration of […] and 500 units/ml, respectively, and reacted with the cells at 37° C. for 30 minutes. Cells were rinsed in PBS, resuspended in a 4×saline-citrate buffer with 0.1% triton X100, 5% (w/v) non-fat powdered milk and 2.5 μg/ml FITC-labelled avidin, Boehringer Mannheim, supra, and incubated at room temperature for 30 minutes. Excess avidin-FITC was removed by washing the cells with PBS containing 0.1% triton X-100. In the cells with DNA damage, biotin-labelled dUTP was localized by the avidin-FITC: avidin and biotin form a strong linkage and reveal the extent of dUTP homopolymer tailing.
The amount of DNA per cell reflects the cell cycle position of each cell.

Data set [2] relates to U937 cells. The experiment in a line: Flow cytometric cell cycle analysis (propidium iodide). The data set is classed as cell-based, human. As to conditions: U937. The method, then:
Flow cytometric analyses were performed with a Coulter Epics System (purchased from Coulter Corp, Hialeah, Fla.). Cells were disrupted in buffer with 0.1% Triton-X 100 (or 0.6 % NP-40), so that the nuclei could be stained with 0.05% propidium iodide (PI). See Shapiro N M, Practical Flow Cytometry, Man R Liss, NY (1988); Nicoletti I et al., J Immunol Methods 139:271-9 (1991). Analyses of 10,000 nuclei were performed with graduated concentrations of dThd at serial time points. Histograms of PI fluorescent emissions at 675±10 nm were used to discriminate cell cycle fractions of the target population. The proportion of cells in each phase of the cell cycle is represented by stack bars above the X-axis as a fraction of those cells with intact DNA structure. The fraction of cells with depleted DNA in each sample is represented below the X-axis as a percentage of the total cell number. Cells with depleted DNA are presumed apoptotic. Crompton S T et. al. Biophys. Biochem. Res. Comm. 183:532-537 (1992). Each stack bar in FIG. 5 represents the cell cycle distribution of a population sample of >10,000 cells, analyzed for each indicated dThd concentration at indicated treatment times.
Flow cytometric analyses were performed as in Example 2. The results are shown in plot A of FIG. 5 from Example 2.
The U937 cells were exposed to a range of concentrations below the IC40 and sampled for flow cytometry at intervals of 8, 16, and 24 hours. Flow cytometric analysis was performed as described in Example 2.
For orientation: A flow cytometer gives signals particle by particle.

For data set [3], the system named is human malignant lymphoma cells (U937). The experiment in a line: Clonogenic assay in methylcellulose. The data set is classed as cell-based. From the text: Elimination of a targeted cell population by a cytotoxic agent or agent combinations can not be assured if cells with generative capacity survive. The clonogenic assay in soft agar or methylcellulose is a practical and useful means of determining long-term effects of cytotoxic agents on a malignant cell population, since malignant cells are often capable of growing and forming colonies in these media. The colony forming efficiency of any line or population of malignant cells must be established from the colony count in relationship to the inoculum number and varies over a wide range. […] (same protocol as Example 2A, Table 7). Methylcellulose (MC) solution 2.1-2.3% was obtained from Stem Cell Technologies in Vancouver, B.C. and made up in a series of sterile tubes: (a) 0.4 ml MC stock solution, (b) 50 μl of NuSerum, (c) 2×10^4 cells from the treated cell suspension from the 24-well plate (about 250 μl) and (d) complete growth medium to make a final volume of 1 ml (final cell density=about 2×10^4 cells). A syringe with 18 g. needle was used to transfer load 100 μl of each sample the final cell preparation to each of triplicate wells in a 96-well plate. Thus the final cell number was about 2,000 cells/well. Plates were examined daily for colony formation. At days 3-5, colonies were counted. and colonies were overlaid with MTT: 25 μl, incubated overnight at 37° C. and 100 μl of 4% formalin was added to aid visualization and photography. […] The effective cytotoxicity was calculated as 1−C/C0 where C=the number of colonies formed by a sample of treated cells and C0=the number of colonies formed by an equal sample of untreated cells.

Data set [4] deals with U937 cells. Kind of data set: DNA gel electrophoresis for DNA fragmentation (apoptosis). The data set is classed as cell-based, human. Here is the method:
Samples of the U937 cells were exposed to a series of concentrations of dThd for 24 hr. Their DNA was isolated by lysis of cell samples in TE buffer containing TRIS 10 mM, EDTA 10 mM, SDS 0.5% and proteinase K 200 μg/ml at […] for 2 h. The proteins were precipitated in a IM solution of NaCl and centrifuged at 2,500×g for 30 min at […] DNAse free RNase (25 μg/ml) was added to the supernatant and incubated for 30 min at 37° C. Spectrophotometric quantitation of the DNA in the supernatant was quantitated by absorbance spectrophotometry at 260 nm. Volumes adjusted to contain equal amounts of DNA were mixed with a loading buffer of 40% (w/v) sucrose, 0.1M EDTA pH 8.0, 0.5% (w/v) sodium lauryl sulphate and 0.05% (w/v) bromophenol blue. […] Separated bands of DNA were stained with ethidium bromide and photographed in UV light (Fotodyne Inc.). […] The lowest molecular weight (about 180 bp) was determined with a standard 123 bp ladder from Sigma Chemical Co. (Cat. #D5042). The result shown is a classical “DNA ladder,” characteristic of the fragmentation of DNA macromolecules in apoptosis. See Tomei, supra; Obeid, supra; Gold, supra.

The mark [5] stands for this setting: 24 hr after RBC infection, 3H-hypoxanthine uptake.
[6] abbreviates: Homo sapiens, U-937, 96 h, read-out: Maximum effective cytotoxicity (1-C/C0), clonogenic.

The results in this text go back to US6455593B1, “Method of dynamic retardation of cell cycle kinetics to potentiate cell damage” (priority 1995, dated 2002).

Molecules are shown by their SMILES. Read-outs that look alike come from different tables or passages of the source.

With `C[C@@]1(CO)[C@H](O)CC[C@@]2(C)[C@H]1CC[C@H]1C[C@@H]3C[C@@]12CC[C@]3(O)CO` [Aph, aphidicolin], the IC50 with p. falciparum W2 (setting [5]) came out at 123 nM; in the data set on p. falciparum D6 (setting [5]), 400 nM.
With `CN[C@@H]1C[C@H]2O[C@@](C)([C@@H]1OC)n1c3ccccc3c3c4c(c5c6ccccc6n2c5c31)C(=O)NC4` [STSP, staurosporine], the results for the IC50 in the data set on p. falciparum W2 and in the data set on p. falciparum D6 were 150 nM and 190 nM, respectively. Further, in the data set with U937 cells [1] (4 hours of 0.2 mM dThd followed by 25 nM STSP for additional 7 hours), the “dUTP labelling (DNA fragmentation)” value is “marked increase in the number of dUTP labelled cells”. The “Effect on cell cycle distribution” value in the data set on U937 cells [2] (50 nM STSP, from 4 hours, shown at 8 hr and 24 hours) is “gradually accumulated in the G2 and M phases”. For the same compound, the Emax at 0.02 µM in data set [3] (setting [6]) was in the range of 40 to 60%. In addition, the “Effective cytotoxicity, clonogenic” value in data set [3] (optimal synergistic match of dThd and STSP, 96 hours) was “almost total cytotoxicity”. Further, the “DNA ladder pattern fragmentation” value in the data set with U937 cells [4] (50 nM STSP, 8 hours, U937) is “DNA fragmentation in U937 cells in 8 hours”.
On to `Cc1cn([C@H]2C[C@H](O)[C@@H](CO)O2)c(=O)[nH]c1=O` [dThd, deoxythymidine], for which the “dUTP labelling (DNA fragmentation)” value with U937 cells [1] (3 mM dThd, 11 hours) is “appearance of cells with dUTP labelling, indicating DNA fragmentation”. In addition, the “Effect on cell cycle progression” value in the data set on U937 cells [2] (0.2 mM dThd) is on record as “permitted continuous cell transit”; in the data set with U937 cells [2] (3 mM dThd), “arrested cell cycle progression at G1/S”. The Emax at 100 µM in data set [3] (setting [6]) was 40 to 60%. Besides, in the data set on U937 cells [4] (3 mM dThd, cell cycle arrest), the DNA fragmentation entry was “pronounced DNA fragmentation”. Moreover, in the data set on U937 cells [4] (U937, 24 hr, FIG. 8), the “dThd concentration giving fragmentation of DNA” value is given as greater than 0.5 mM.
